Laboratory results reported in ChEMBL document CHEMBL1821563, “The discovery and synthesis of JNJ 31020028, a small molecule antagonist of the Neuropeptide Y Y₂ receptor” (Bioorg Med Chem Lett, 2011).

How the values were obtained:
[1] = target: T1, Neuropeptide Y receptor type 2 (Homo sapiens, UniProt P49146); test: Displacement of [125I]PYY from human NPY Y2 receptor expressed endogenously in KAN-Ts cells by scintillation counting; assay type: cell-based
T1 sequence (P49146 whole entry): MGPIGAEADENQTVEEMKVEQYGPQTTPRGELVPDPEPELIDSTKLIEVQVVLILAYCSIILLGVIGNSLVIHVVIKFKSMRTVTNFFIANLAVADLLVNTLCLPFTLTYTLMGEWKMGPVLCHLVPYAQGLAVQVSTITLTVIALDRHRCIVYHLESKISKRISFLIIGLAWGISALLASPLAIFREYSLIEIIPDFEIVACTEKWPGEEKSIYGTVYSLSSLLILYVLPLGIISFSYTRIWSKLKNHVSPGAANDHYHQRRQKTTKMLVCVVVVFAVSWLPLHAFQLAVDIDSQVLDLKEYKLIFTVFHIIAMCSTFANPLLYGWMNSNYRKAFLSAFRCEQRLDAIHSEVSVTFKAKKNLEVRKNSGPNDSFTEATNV

CYP2D6 = CYP2D6 (Homo sapiens, UniProt P10635); test: Inhibition of CYP2D6 at 10 uM; assay type: ADME
CYP2C9 = CYP2C9 (Homo sapiens, UniProt P11712); test: Inhibition of CYP2C9 at 10 uM; assay type: ADME
CYP2C9, sequence (P11712 whole entry): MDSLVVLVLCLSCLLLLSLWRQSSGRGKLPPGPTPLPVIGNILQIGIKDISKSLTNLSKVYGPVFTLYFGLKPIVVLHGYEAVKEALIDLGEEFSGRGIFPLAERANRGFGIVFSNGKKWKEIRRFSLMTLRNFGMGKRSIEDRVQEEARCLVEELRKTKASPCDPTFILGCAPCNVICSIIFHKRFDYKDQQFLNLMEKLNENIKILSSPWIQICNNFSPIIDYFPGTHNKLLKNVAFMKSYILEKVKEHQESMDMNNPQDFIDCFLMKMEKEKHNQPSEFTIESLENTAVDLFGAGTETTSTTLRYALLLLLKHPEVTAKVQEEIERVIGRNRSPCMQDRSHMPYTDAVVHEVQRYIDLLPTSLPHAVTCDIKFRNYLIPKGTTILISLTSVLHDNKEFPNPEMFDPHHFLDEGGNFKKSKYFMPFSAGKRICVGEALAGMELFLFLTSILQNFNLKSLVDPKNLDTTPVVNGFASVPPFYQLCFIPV

CYP2D6, sequence (P10635 whole entry): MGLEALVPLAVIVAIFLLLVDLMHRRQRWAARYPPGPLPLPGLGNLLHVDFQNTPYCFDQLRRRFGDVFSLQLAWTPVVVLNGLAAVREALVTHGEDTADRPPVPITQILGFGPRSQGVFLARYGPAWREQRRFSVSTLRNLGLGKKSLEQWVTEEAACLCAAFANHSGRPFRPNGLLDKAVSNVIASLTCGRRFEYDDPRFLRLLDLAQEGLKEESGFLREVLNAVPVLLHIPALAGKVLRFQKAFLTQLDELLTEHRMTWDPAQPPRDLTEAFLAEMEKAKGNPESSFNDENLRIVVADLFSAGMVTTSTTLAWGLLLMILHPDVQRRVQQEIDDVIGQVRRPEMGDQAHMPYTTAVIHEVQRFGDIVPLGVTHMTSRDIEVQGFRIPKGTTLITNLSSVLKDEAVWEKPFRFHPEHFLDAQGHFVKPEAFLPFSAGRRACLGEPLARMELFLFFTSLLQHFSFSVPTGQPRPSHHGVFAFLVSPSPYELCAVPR

SMILES | IC50 [1] | inhibition at 10 µM (CYP2D6) | inhibition at 10 µM (CYP2C9)
COC(=O)C(c1ccccc1)N1CCN(c2ccc(NC(=O)c3ccccc3-c3ccccc3)cc2F)CC1 (stereo not drawn) | 52 nM | – | –
CCN(CC)C(=O)C(c1ccccc1)N1CCN(c2ccc(NC(=O)c3ccccc3-c3ccccc3)cc2C#N)CC1 (racemic; 28) | 37 nM | – | –
CCC(CC)C(=O)Nc1ccc(N2CCN(C(C(=O)N(CC)CC)c3ccccc3)CC2)c(F)c1 (racemic) | 50 nM | – | –
CCN(CC)C(=O)C(c1ccccc1)N1CCN(c2ccc(NC(=O)c3ccccc3-c3cccnc3)cc2F)CC1 (racemic) | 6 nM | – | –
CCNC(=O)C(c1ccccc1)N1CCN(c2ccc(NC(=O)c3ccccc3-c3ccccc3)cc2F)CC1 (stereo not drawn) | 35 nM | – | –
CCNC(=O)C(c1ccccc1)N1CCN(c2ccc(NC(=O)c3ccccc3-c3cccnc3)cc2F)CC1 (stereo not drawn) | 42 nM | – | –
CCNC(=O)C(c1ccccc1)N1CCN(c2ccc(NC(=O)C(CC)CC)cc2C#N)CC1 (stereo not drawn) | 150 nM | – | –
CCN(CC)C(=O)C(c1ccccc1)N1CCN(c2ccc(NC(=O)c3ccccc3-c3ccccc3)cc2C#N)CC1 (racemic; 30) | 8 nM | – | –
CCNC(=O)C(c1ccccc1)N1CCN(c2ccc(NC(=O)c3ccccc3-c3cccnc3)cc2C#N)CC1 (stereo not drawn) | 30 nM | – | –
COC(=O)C(c1ccccc1)N1CCN(c2ccc(NC(=O)c3ccccc3-c3ccccc3)cc2C#N)CC1 (stereo not drawn) | 25 nM | – | –
CCN(CC)C(=O)C(c1ccccc1)N1CCN(c2ccc(NC(=O)c3ccccc3-c3ccccc3)cc2F)CC1 (racemic) | 10 nM | – | –
CCN(CC)C(=O)[C@H](c1ccccc1)N1CCN(c2ccc(NC(=O)c3ccccc3-c3cccnc3)cc2F)CC1 | 14 nM | – | –
COC(=O)C(c1ccccc1)N1CCN(c2ccc(NC(=O)c3ccccc3-c3cccnc3)cc2F)CC1 (stereo not drawn) | 40 nM | – | –
CCNC(=O)C(c1ccccc1)N1CCN(c2ccc(NC(=O)c3ccccc3-c3ccccc3)cc2C#N)CC1 (stereo not drawn) | 11 nM | – | –
COC(=O)C(c1ccccc1)N1CCN(c2ccc(NC(=O)c3ccccc3-c3ccncc3)cc2F)CC1 (stereo not drawn) | 37 nM | – | –
CCC(CC)C(=O)Nc1ccc(N2CCN(C(C(=O)N(CC)CC)c3ccccc3)CC2)c(C#N)c1 (racemic; 34) | 13 nM | > 75% | > 75%
COc1cccnc1C(=O)N1CCN(c2ccc(NC(C)(C)c3ccccc3)cc2Cl)CC1 | 25 nM | – | –
CCC(CC)C(=O)Nc1ccc(N2CCN(C(C(=O)OC)c3ccccc3)CC2)c(F)c1 (stereo not drawn) | 165 nM | – | –
COC(=O)C(c1ccccc1)N1CCN(c2ccc(NC(=O)c3ccccc3-c3ccccc3)cc2)CC1 (stereo not drawn) | 530 nM | – | –
COC(=O)C(c1ccccc1)N1CCN(c2ccc(NC(=O)c3ccccc3-c3cccnc3)cc2)CC1 (stereo not drawn) | 220 nM | – | –
CCOc1ccc(NC(=S)N2CCC(C(O)(c3ccccc3)c3ccccc3)CC2)cc1 | 200 nM | – | –
COC(=O)C(c1ccccc1)N1CCN(c2ccc(NC(=O)c3ccccc3-c3ccccc3)cc2C)CC1 (stereo not drawn) | 100 nM | – | –
COC(=O)C(c1ccccc1)N1CCN(c2ccc(NC(=O)c3ccccc3-c3ccncc3)cc2)CC1 (stereo not drawn) | 240 nM | – | –
CCNC(=O)C(c1ccccc1)N1CCN(c2ccc(NC(=O)C(CC)CC)cc2F)CC1 (stereo not drawn) | 370 nM | – | –
CCN(CC)C(=O)[C@@H](c1ccccc1)N1CCN(c2ccc(NC(=O)c3ccccc3-c3cccnc3)cc2F)CC1 | 9 nM | – | –
CCC(CC)C(=O)Nc1ccc(N2CCN(C(C(=O)N(CC)CC)c3ccccc3)CC2)c(C#N)c1 (racemic; 32) | 200 nM | – | –
